According to patent publication US20220280594A1, “APPLICATION OF POLYPEPTIDE OR DERIVATIVE THEREOF” (CHENGDU HUITAI BIOMEDICINE CO., LTD., priority 2019, published 2022):
Ends that are not written are not given here. PEG = not defined here

Tests used:
Assay type in all cases: cell-based
[1] = test system: human breast cancer cells (MDA-MB-231); experiment: scratch assay, migration of MDA-MB-231 cells; conditions: MDA-MB-231, 10 μM, 48 hours; control group 36.19 ± 5.15
Summary of the method: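 MDA-MB-231 monolayers (1-2×10^5 cells/well) were scratched, then kept 48 h in medium with 2% FBS containing polypeptide at 10 μM, with a PBS control, in triplicate wells. Migration rate (%) was taken from scratch width: (original − current)/original ×100.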

[2] = test system: human liver cancer cells (HepG2); experiment: scratch assay, migration of HepG2 cells; conditions: HepG2, 10 μM, 48 hours; control group 71.01 ± 6.63
Summary of the method: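 HepG2 monolayers scratched, then cultured 48 h in 2% FBS medium with test polypeptides at 10 μM versus PBS control, triplicate wells. Migration rate (%) computed from original versus current scratch width in images.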

[3] = test system: human pancreatic cancer cells (PANC-1); experiment: scratch assay, migration of PANC-1 cells; conditions: PANC-1, 10 μM, 48 hours; control group 66.65 ± 3.37
Summary of the method: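 PANC-1 monolayers were scratched, then cultured for 48 h with 10 μM test compound in 2% FBS medium, in three parallel wells per group against a PBS control. Migration rate (%) was calculated as (original minus current scratch width) / original width × 100, from imaged wells.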

[4] = test system: human prostate cancer cells (22RV1); experiment: scratch assay, migration of 22RV1 cells; conditions: 22RV1, 10 μM, 48 hours; control group 25.41 ± 5.01
Summary of the method: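 22RV1 monolayers (seeded 1-2×10^5 cells/well) were scratched, washed, then given 2% FBS medium with 10 μM polypeptide or PBS, triplicate wells, for 48 h. Migration rate (%) = (original − current scratch width)/original width ×100, from ≥3 images per well.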

[5] = test system: human liver adenocarcinoma cells (SK-HEP-1); experiment: transwell invasion assay, SK-HEP-1 cells; conditions: SK-HEP-1 transwell invasion, 10 μM, 24 hours; control group 767 ± 91
Summary of the method: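 Serum-free SK-HEP-1 cells were seeded in matrigel-coated upper chambers over complete medium. After 4-5 h, peptide was added to the upper chamber at 10 μM final. Following 24 h at 37° C., invaded cells were fixed, crystal violet-stained, imaged and counted.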

[6] = test system: human pancreatic cancer cells (PANC-1); experiment: transwell invasion assay, PANC-1 cells; conditions: PANC-1 transwell invasion, 10 μM, 24 hours; control group 727 ± 68
Summary of the method: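 Serum-free PANC-1 cells were seeded in matrigel-coated upper chambers with complete medium below. After 4-5 hours at 37° C., peptide was added at 10 μM final. Following 24 hours, invaded cells on the lower membrane surface were fixed, crystal violet-stained, imaged and counted against untreated controls.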

[7] = test system: human pharyngeal squamous-cell carcinoma cells (Fadu); experiment: scratch assay, migration of Fadu cells; conditions: 10 μM, 48 hours, control group 28.76 ± 4.08
Summary of the method: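 Confluent Fadu monolayers scratched, then cultured 48 h with 10 μM polypeptide in medium with 2% FBS; PBS control, triplicate wells. Migration rate (%) = (original − current scratch width)/original width × 100, from ≥3 images per well.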

[8] = test system: human breast cancer cells (MCF-7); experiment: scratch assay, migration of MCF-7 cells; conditions: MCF-7, 10 μM, 48 hours; control group 30.97 ± 1.79
Summary of the method: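 MCF-7 monolayers scratched, then cultured 48 hours in 2% FBS medium with test peptide at 10 μM versus PBS control, triplicate wells. Migration rate (%) = (original − current scratch width)/original width × 100, measured from images.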

[9] = test system: human colon cancer cells (HCT-116); experiment: scratch assay, migration of HCT-116 cells; conditions: HCT-116, 10 μM, 48 hours; control group 47.78 ± 6.07
Summary of the method: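 Confluent HCT-116 monolayers were scratched, washed and cultured 48 h in 2% FBS medium with peptide at 10 μM versus PBS control, triplicate wells. Migration rate (%) = (original minus current scratch width)/original width × 100, from at least 3 images per well.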

[10] = test system: human melanoma cells (A375); experiment: scratch assay, migration of A375 cells; conditions: A375, 10 μM, 48 hours; control group 44.03 ± 6.21
Summary of the method: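 Monolayers scratched, washed with PBS and cultured 48 hours in 2% FBS medium with polypeptides N1-N54 at 10 μM or PBS control, three wells per group. Migration rate (%) = (original − current scratch width)/original width×100, from imaged scratch widths.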

| Substance | Migration rate (%) (mean ± SD, P) [1] | Migration rate (%) (mean ± SD, P) [2] | Migration rate (%) (mean ± SD, P) [3] | Migration rate (%) (mean ± SD, P) [4] | Number of cells (mean ± SD, P), invaded cells [5] | Number of cells (mean ± SD, P), invaded cells [6] | Migration rate (%) (mean ± SD, P) [7] | Migration rate (%) (mean ± SD, P) [8] | Migration rate (%) (mean ± SD, P) [9] | Migration rate (%) (mean ± SD, P) [10] |
| --- | --- | --- | --- | --- | --- | --- | --- | --- | --- | --- |
| N15: SEQ ID NO: 1 with substitution N18R and addition of one amino acid to the carboxyl terminal (YRVRFLAKENVTQDAEDRC) | 13.03 ± 5.72,** % | 53.20 ± 5.58,* % | 14.85 ± 5.08,*** % | 8.36 ± 2.03,** % | 418 ± 36,** | 104 ± 9,**** | 12.45 ± 4.28,** % | 11.57 ± 2.10,** % | 10.41 ± 2.99,*** % | 10.62 ± 2.53,*** % |
| N16: SEQ ID NO: 1 with substitution A7R and addition of one amino acid at the carboxyl terminus (YRVRFLRKENVTQDAEDNC) | 14.99 ± 6.11,* % | 43.25 ± 5.18,** % | 19.15 ± 4.97,*** % | 9.75 ± 2.14,** % | 398 ± 43,*** | 128 ± 25,**** | 5.51 ± 1.32,*** % | 9.81 ± 3.29,** % | 9.39 ± 2.06,*** % | 11.28 ± 3.14,*** % |
| N10: SEQ ID NO: 1 with deletion of positions 15-18 and 1-3 and PEG modification at the carboxyl terminal (RFLAKENVTQD-{PEG}; reading uncertain) | 13.6 ± 4.62,** % | 39.45 ± 5.00,** % | 32.80 ± 5.89,** % | 13.39 ± 2.3,* % | 460 ± 43,** | 159 ± 12,**** | 15.93 ± 4.73,* % | 9.55 ± 2.72,** % | 8.70 ± 2.39,*** % | 6.71 ± 2.07,*** % |
| N30: SEQ ID NO: 1 with deletion of positions 1-5 and 15-18 and PEG modification at the carboxyl terminal (LAKENVTQD-{PEG}; reading uncertain) | 9.02 ± 2.02,*** % | 16.60 ± 7.85,*** % | 16.60 ± 5.85,*** % | 10.82 ± 2.55,* % | 85 ± 20,**** | 237 ± 15,**** | 13.85 ± 3.59,** % | 14.34 ± 4.06,* % | 12.41 ± 2.99,*** % | 6.96 ± 2.18,*** % |
| N54: SEQ ID NO: 1 with A7R, addition of two amino acids and PEG modification at the carboxyl terminal (YRVRFLRKENVTQDAEDNTC-{PEG}; reading uncertain) | 13.37 ± 5.89,** % | 46.62 ± 3.73,** % | 16.62 ± 5.73,*** % | 12.94 ± 2.70,* % | 151 ± 28,**** | 231 ± 26,**** | 15.88 ± 5.38,* % | 16.52 ± 2.93,* % | 26.50 ± 3.99,** % | 16.91 ± 3.21,** % |
| N2: SEQ ID NO: 1 with deletion of one amino acid (position 18) at the carboxyl terminal (YRVRFLAKENVTQDAED) | 20.92 ± 2.16,* % | 13.05 ± 6.50,*** % | 32.74 ± 4.26,** % | 6.48 ± 2.97,** % | 432 ± 47,** | 93 ± 19,**** | 10.71 ± 2.30,** % | 12.32 ± 2.26,** % | 23.42 ± 6.12,** % | 6.52 ± 1.25,*** % |
| N27: SEQ ID NO: 1 with addition of one amino acid at the carboxyl terminal and PEG modification at the carboxyl terminal (YRVRFLAKENVTQDAEDNC-{PEG}; reading uncertain) | 9.62 ± 3.01,*** % | 39.99 ± 3.19,** % | 27.19 ± 7.04,*** % | 14.76 ± 2.79,* % | 369 ± 52,*** | 242 ± 35,**** | 15.99 ± 3.96,* % | 8.40 ± 2.44,** % | 24.14 ± 3.00,** % | 12.52 ± 3.78,*** % |
| N24: SEQ ID NO: 1 with substitution A7R, deletion of positions 1-2 and of position 18 (VRFLRKENVTQDAED) | 20.97 ± 3.37,* % | 16.38 ± 6.48,*** % | 13.99 ± 7.57,*** % | 8.44 ± 1.63,** % | 332 ± 30,*** | 226 ± 18,**** | 14.07 ± 5.12,* % | 9.43 ± 1.12,** % | 12.14 ± 2.49,*** % | 15.79 ± 4.16,** % |
| N35: SEQ ID NO: 1 with A15R, addition of one amino acid and PEG modification at the carboxyl terminal (YRVRFLAKENVTQDREDNC-{PEG}; reading uncertain) | 18.12 ± 5.23,* % | 16.83 ± 7.92,*** % | 36.83 ± 5.92,** % | 7.13 ± 2.23,** % | 338 ± 43,*** | 358 ± 23,*** | 8.71 ± 1.79,*** % | 17.38 ± 2.55,* % | 9.08 ± 2.64,*** % | 19.51 ± 2.28,** % |
| N8: SEQ ID NO: 1 with deletion of positions 15-18 and positions 3, 4 and 11 (YRFLAKENTQD) | 19.02 ± 3.53,* % | 18.65 ± 6.88,*** % | 35.11 ± 5.96,** % | 8.75 ± 1.98,** % | 277 ± 38,**** | 65 ± 16,**** | 9.54 ± 5.75,** % | 11.56 ± 2.35,** % | 16.96 ± 3.87,** % | 4.74 ± 1.84,*** % |
